Assay results published in patent publication US10246487B2, “Azaindoline compounds as granzyme B inhibitors” (viDA Therapeutics Inc., priority 2014, dated 2019).

Tests used:
GzmB [1] = molecular target: T1, GzmB (Homo sapiens, UniProt P10144); assay: Inhibition of fibronectin cleavage by GzmB; format: biochemical; conditions: 20 nM granzyme B; for inhibition at 0.62 µM: 0.62 uM inhibitor, read-out: Percent Inhibition at Inhibitor Concentration 0.62 uM; for inhibition at 5.56 µM: 5.56 uM inhibitor, read-out: Percent Inhibition at Inhibitor Concentration 5.56 uM; for inhibition at 50 µM: 50 uM inhibitor, read-out: Percent Inhibition at Inhibitor Concentration 50 uM
T1 sequence (P10144 21-247): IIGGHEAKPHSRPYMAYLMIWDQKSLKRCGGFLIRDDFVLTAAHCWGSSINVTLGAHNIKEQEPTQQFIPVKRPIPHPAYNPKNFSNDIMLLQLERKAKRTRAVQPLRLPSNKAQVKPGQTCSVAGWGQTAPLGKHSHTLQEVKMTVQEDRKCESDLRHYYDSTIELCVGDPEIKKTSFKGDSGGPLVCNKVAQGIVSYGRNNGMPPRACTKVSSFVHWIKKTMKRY
Protocol: Black, 96 well high-binding assay plates (Griener Bio-one) were treated overnight at 4° C. with 40 uL of 8 ug/mL Hilyte Fluor 488 labeled Fibronectin (Cytoskeleton, Inc). After fibronectin coating, plates were washed 3 times in buffer (20 mM Tris-HCl, pH 7.4, 20 mM NaCl) then once with granzyme B assay buffer (50 mM HEPES, pH 7.5, 0.1% CHAPS). After washing, 50 μL of granzyme B assay buffer was added to each fibronectin-coated well. In a separate non-binding 96 well assay plate 5 μL of 20× inhibitor serial dilution stocks were added to 45 μL of 2.22× GzmB mix to establish inhibition (enzyme/inhibitor mixes were all prepared in granzyme B assay buffer and were incubated first at room temperature for 20 minutes, then at 30° C. for another 10 minutes). After incubation, 50 μL of this 2× enzyme/inhibitor mix was added to the corresponding coated well to initiate fibronectin cleavage (20 nM final granzyme B concentration, 8-point inhibitor dilution series starting at 50 uM). The assay was conducted at 30° C. in the TECAN plate reader (TECAN INFINITE® M1000 Pro), which was programmed to monitor the kinetic fluorescence polarization signal (filter set Ex/Em 470 nm/527 nm) with readings taken every minute, for 1 hour. Proteolytic activity was evaluated as the rate of fluorescence enhancement in the parallel emission over the linear range of the reaction. % Inhibition values were calculated from assay controls and the resulting date is shown in Table 7.

GzmB [2] = molecular target: T1, GzmB; assay: Inhibition of cell detachment by GzmB assay (HDFa fibroblasts, MTS); format: cell-based; conditions: 50 uM inhibitor, 100 nM GzmB, HDFa primary human fibroblasts, 7 hours; read-out: Percent Inhibition of cell detachment at 50uM
Protocol: HDFa primary human fibroblasts were plated at 10 k/well in 200 ul, approximately 20 hrs before treatment. The next day, controls and 100 nM GzmB (recombinant, human) plus or minus inhibitor treatments were prepared in serum-free media. GzmB and inhibitor were incubated for 20 minutes at RT before adding to cells. Before addition, media and serum was removed from the cells and the cells were washed with PBS (1×), using pipettes to prevent disturbing the cells. Treatment preparations (100 ul) were added to the wells and incubated for 7 hours in a tissue culture incubator. After 7 hours, media and treatments were removed and the cells were washed with PBS (1×) to removed detached cells, using pipettes only. Phase pictures were taken then the PBS was removed and replaced with 100 uL of serum-free media and 20 uL of MTS and the cells were allowed to incubate for 3 hours in a cell culture incubator. After 3 hours the absorbance was read at 490 nm and a percent inhibition value for the treatments with inhibitors was determined from the control wells.

Row | Structure (SMILES) | inhibition at 0.62 µM (GzmB [1]) [%] | inhibition at 5.56 µM (GzmB [1]) [%] | inhibition at 50 µM (GzmB [1]) [%] | inhibition at 50 µM (GzmB [2]) [%]
1 | CC[C@H](C)[C@H](NC(=O)Cc1nn[nH]n1)C(=O)NCC(=O)N1c2ncccc2C[C@H]1C(=O)NCc1nn[nH]n1 [Example A1, (S)-1-(2-((2S,3S)-2-(2-(2H-tetrazol-5-yl)acetamido)-3-methylpentanamido)acetyl)-N-((2H-tetrazol-5-yl)methyl)-2,3-dihydro-1H-pyrrolo[2,3-B]pyridine-2-carboxamide] | 66 | 82 | 88 | –
2 | CC[C@H](C)[C@H](NC(=O)CCC(=O)O)C(=O)N[C@@H](CCC(=O)O)C(=O)N1c2ncccc2C[C@H]1C(=O)NCc1nn[nH]n1 [Example C4, (S)-5-((S)-2(((2H-tetrazol-5-yl)methyl)carbamoyl)-2,3-dihydro-1H-pyrrolo[2,3-B]pyridin-1-yl)-4-((2S,3S)-2-(3-carboxypropanamido)-3-methylpentanamido)-5-oxopentanoic acid] | 45 | 79 | 98 | 100
3 | CC[C@H](C)[C@H](NC(=O)Cc1ccccc1)C(=O)N[C@@H](CCC(=O)O)C(=O)N1c2ncccc2C[C@H]1C(=O)NCc1nn[nH]n1 [Example C9, (S)-5-((S)-2-(((2H-tetrazol-5-yl)methyl)carbamoyl)-2,3-dihydro-1H-pyrrolo[2,3-B]pyridin-1-yl)-4-((2S,3S)-3-methyl-2-(2-phenylacetamido)pentanamido)-5-oxopentanoic acid] | 58 | 81 | 91 | –
4 | CC(C)[C@H](NC(=O)CCC(=O)O)C(=O)N[C@@H](CCC(=O)O)C(=O)N1c2ncccc2C[C@H]1C(=O)NCc1nn[nH]n1 [Example C17, (S)-5-((S)-2-(((2H-tetrazol-5-yl)methyl)carbamoyl)-2,3-dihydro-1H-pyrrolo[2,3-B]pyridin-1-yl)-4-((S)-2-(3-carboxypropanamido)-3-methylbutanamido)-5-oxopentanoic acid] | 56 | 77 | 94 | –
